Measurements taken from publication PMC12155096 (International Journal of Molecular Sciences, 2025).
Where two headings read alike, the source gives them in different places.

Assays:
human CYP2D6 [1] = biological target: T1, human CYP2D6 (Homo sapiens, UniProt P10635); conditions: for CYP2D6 Efficacy: 1 h
human CYP2D6 [2] = biological target: T1, human CYP2D6; assay: biochemical
CYP3A4 [3] = biological target: T2, CYP3A4 (Homo sapiens, UniProt P08684); assay: biochemical; conditions: for AC50: CYP3A4 AC50 (half-maximal activity concentration)
T2 sequence (P08684 whole entry): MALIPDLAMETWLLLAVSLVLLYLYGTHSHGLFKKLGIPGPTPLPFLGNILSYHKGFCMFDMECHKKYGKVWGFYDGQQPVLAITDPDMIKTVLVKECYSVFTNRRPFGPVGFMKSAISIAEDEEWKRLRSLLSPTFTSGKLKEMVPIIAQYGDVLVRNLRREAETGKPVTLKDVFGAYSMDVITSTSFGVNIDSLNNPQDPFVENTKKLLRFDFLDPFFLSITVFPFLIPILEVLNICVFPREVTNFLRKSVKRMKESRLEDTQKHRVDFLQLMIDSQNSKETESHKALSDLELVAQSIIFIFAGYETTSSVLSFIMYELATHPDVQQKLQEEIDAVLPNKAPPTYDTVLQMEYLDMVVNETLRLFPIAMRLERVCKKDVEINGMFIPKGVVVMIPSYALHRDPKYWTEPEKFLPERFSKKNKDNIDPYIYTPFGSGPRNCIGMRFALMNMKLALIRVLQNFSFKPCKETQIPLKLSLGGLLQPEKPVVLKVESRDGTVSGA

[4] = biological target: Photinus pyralis (firefly) luciferase (Photinus pyralis, UniProt P08659); assay: biochemical; assay type: biochemical
Sequence of Photinus pyralis (firefly) luciferase (P08659 whole entry): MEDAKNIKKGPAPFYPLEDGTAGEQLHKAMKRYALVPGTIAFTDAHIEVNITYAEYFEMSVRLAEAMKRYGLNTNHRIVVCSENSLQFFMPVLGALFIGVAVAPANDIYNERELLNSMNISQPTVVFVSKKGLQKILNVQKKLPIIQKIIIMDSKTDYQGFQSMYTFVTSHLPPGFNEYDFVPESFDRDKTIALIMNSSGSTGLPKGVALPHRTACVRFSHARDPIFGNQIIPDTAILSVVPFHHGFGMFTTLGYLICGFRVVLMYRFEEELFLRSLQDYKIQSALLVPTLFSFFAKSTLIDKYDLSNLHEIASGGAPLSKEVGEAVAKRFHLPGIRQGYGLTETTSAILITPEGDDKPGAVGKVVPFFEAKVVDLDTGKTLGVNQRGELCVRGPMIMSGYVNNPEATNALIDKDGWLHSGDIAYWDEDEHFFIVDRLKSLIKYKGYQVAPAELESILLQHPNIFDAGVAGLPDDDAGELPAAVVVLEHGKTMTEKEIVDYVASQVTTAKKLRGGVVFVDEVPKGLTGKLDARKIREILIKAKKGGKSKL

human CYP2C19 [5] = biological target: T3, human CYP2C19 (Homo sapiens, UniProt P33261); assay: biochemical
T3 sequence (P33261 whole entry): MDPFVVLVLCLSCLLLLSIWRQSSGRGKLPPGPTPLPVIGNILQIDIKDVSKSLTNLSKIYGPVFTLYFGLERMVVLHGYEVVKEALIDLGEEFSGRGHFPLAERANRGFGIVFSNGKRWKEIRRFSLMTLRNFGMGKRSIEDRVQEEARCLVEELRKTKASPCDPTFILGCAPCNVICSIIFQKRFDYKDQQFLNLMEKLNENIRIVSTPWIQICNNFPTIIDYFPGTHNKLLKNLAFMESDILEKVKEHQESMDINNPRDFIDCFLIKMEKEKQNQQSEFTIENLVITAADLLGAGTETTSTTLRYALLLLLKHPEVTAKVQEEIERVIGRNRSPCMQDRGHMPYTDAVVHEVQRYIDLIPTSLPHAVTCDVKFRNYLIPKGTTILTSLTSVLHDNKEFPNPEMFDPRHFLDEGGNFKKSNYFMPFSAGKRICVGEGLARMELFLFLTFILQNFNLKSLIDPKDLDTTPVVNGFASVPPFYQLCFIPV

human CYP2C9 [6] = biological target: T4, human CYP2C9 (Homo sapiens, UniProt P11712); assay: biochemical; conditions: for AC50: CYP2C9 AC50 (half-maximal activity concentration)
T4 sequence (P11712 whole entry): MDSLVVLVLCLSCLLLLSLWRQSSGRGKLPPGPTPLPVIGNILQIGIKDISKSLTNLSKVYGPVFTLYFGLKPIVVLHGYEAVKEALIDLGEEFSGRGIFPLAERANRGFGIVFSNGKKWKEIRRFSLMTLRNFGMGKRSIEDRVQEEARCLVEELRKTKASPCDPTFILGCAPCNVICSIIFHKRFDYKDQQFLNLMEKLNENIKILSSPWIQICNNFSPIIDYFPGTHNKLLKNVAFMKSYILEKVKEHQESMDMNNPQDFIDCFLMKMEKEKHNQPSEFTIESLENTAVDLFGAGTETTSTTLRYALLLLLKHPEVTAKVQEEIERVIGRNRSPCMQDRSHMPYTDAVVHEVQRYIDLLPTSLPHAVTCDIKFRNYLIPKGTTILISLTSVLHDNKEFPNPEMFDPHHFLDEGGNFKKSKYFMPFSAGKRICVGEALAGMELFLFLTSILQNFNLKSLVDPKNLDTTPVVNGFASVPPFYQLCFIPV

human CYP1A2 [7] = biological target: T5, human CYP1A2 (Homo sapiens, UniProt P05177); assay: biochemical
T5 sequence (P05177 1-516): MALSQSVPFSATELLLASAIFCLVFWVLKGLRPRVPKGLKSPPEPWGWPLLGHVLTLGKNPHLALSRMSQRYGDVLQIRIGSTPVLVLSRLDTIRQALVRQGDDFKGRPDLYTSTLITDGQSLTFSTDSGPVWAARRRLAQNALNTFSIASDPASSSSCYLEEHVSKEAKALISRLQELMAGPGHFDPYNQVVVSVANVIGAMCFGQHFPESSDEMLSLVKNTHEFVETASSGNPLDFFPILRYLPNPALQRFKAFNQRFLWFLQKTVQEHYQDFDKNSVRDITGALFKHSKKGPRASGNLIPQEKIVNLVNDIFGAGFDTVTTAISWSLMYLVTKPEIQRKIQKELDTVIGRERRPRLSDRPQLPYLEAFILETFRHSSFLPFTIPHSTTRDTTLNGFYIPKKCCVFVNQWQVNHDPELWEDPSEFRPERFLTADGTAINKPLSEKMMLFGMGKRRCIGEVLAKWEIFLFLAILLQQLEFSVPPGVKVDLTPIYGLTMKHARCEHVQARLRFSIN

CYP3A4 [8] = biological target: T2, CYP3A4
human CYP2C19 [9] = biological target: T3, human CYP2C19
human CYP2C9 [10] = biological target: T4, human CYP2C9; conditions: human
human CYP1A2 [11] = biological target: T5, human CYP1A2
[12] = CYP2D6 IC50 (half-maximal inhibitory concentration)
[13] = CYP3A4 IC50 (half-maximal inhibitory concentration)
[14] = CYP2C19 IC50 (half-maximal inhibitory concentration)
[15] = CYP2C9 IC50 (half-maximal inhibitory concentration)
[16] = CYP1A2 IC50 (half-maximal inhibitory concentration)

T1 sequence (P10635 whole entry): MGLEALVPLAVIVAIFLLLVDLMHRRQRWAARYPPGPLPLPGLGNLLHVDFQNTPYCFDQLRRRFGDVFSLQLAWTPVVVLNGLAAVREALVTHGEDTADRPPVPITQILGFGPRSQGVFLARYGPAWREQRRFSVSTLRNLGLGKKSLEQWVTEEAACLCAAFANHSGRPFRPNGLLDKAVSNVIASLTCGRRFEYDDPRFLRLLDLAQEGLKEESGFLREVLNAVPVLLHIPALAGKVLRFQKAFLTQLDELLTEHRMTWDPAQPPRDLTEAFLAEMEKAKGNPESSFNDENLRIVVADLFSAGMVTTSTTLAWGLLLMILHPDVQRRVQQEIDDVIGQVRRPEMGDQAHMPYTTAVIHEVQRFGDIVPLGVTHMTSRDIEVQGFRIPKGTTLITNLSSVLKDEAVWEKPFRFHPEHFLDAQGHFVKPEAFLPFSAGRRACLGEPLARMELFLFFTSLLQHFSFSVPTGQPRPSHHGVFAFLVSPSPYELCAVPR

SMILES | IC50 (human CYP2D6 [2]) [µM] | Luciferase IC50 [4] | IC50 (human CYP2C9 [6]) [µM] | IC50 (human CYP2D6 [2]; [12]) [µM] | IC50 (CYP3A4 [3]; [13]) [µM] | Luciferase IC50 (half-maximal inhibitory concentration) [4] | IC50 (human CYP2C19 [5]; [14]) [µM] | IC50 (human CYP2C9 [6]; [15]) [µM] | IC50 (human CYP2C19 [5]; CYP2C19 IC50) [µM] | IC50 (human CYP1A2 [7]; [16]) [µM] | further results
CCCCC(CC)CN1C(=O)C2C3C=CC(C3)C2C1=O (centres unmarked) [MGK-264] | 31.4 | Inactive | 10.1 |  |  |  |  |  |  |  | CYP2D6 Efficacy (human CYP2D6 [1]; human): 31.36 ± 8.74 (-86 ± 27) %; IC50 (CYP3A4 [3]): 0.86 µM; IC50 (human CYP2C19 [5]): 4.9 µM; IC50 (human CYP1A2 [7]): 18.6 µM
CC1(C)CCC(Cc2ccc(Cl)cc2)C1(O)Cn1cncn1 (centres unmarked) [Metconazole] |  |  |  | 41.9 | 0.06 | Inactive | 0.17 | 0.23 |  |  | CYP3A4 Efficacy (in parenthesis) (CYP3A4 [8]): 0.06 ± 0.04 (-85 ± 6) %; CYP2D6 Efficacy (in parenthesis) (human CYP2D6 [1]; human): 41.91 ± 7.54 (-75 ± 4) %; CYP2C19 Efficacy (in parenthesis) (human CYP2C19 [9]; human): 0.17 ± 0.05 (-148 ± 4) %; CYP2C9 Efficacy (in parenthesis) (human CYP2C9 [10]): 0.23 ± 0.11 (-96 ± 19) %
COc1ccc(S(=O)(=O)N2C(=O)[C@@](c3ccccc3OC)(N3C[C@H](O)C[C@H]3C(=O)N(C)C)c3cc(Cl)ccc32)c(OC)c1 [Nelivaptan] | 55.1 ± 29.4 |  | 44.5 ± 24.6 |  |  | Inactive |  |  |  |  | CYP2D6 Efficacy (human CYP2D6 [1]; human): 55.12 ± 29.45 (-53 ± 5) %; IC50 (CYP3A4 [3]): 0.07 ± 0.02 µM; IC50 (human CYP2C19 [5]): 27.6 ± 19.5 µM; IC50 (human CYP1A2 [7]): 53.3 ± 25 µM
O=c1[nH]c2ccccc2n1CCCN1CCN(C(c2ccccc2)c2ccccc2)CC1 [Oxatomide] |  | Inactive |  |  |  |  |  |  | 33.2 |  | CYP3A4 IC50 (CYP3A4 [8]): 1.39 ± 0.16 (164 ± 14) µM; AC50 (human CYP2D6 [2]; CYP2D6 AC50 (half-maximal activity concentration)): 0.62 µM; IC50 (human CYP2D6 [2]; CYP2D6 IC50): 0.62 µM; CYP1A2 IC50 (human CYP1A2 [11]): Inactive; AC50 (CYP3A4 [3]): 1.39 µM; AC50 (human CYP2C9 [6]): 25.3 µM; IC50 (human CYP2C9 [6]; CYP2C9 IC50): 25.3 µM; CYP2C19 AC50 (half-maximal activity concentration) (human CYP2C19 [9]): Inconclusive inhibitor
CCOP(=S)(OCC)Oc1cnc2ccccc2n1 [Quinalphos] | 38.5 | Inactive | 0.91 |  |  |  |  |  | 0.47 |  | IC50 (CYP3A4 [3]; CYP3A4 IC50): 4.57 µM; IC50 (human CYP1A2 [7]; CYP1A2 IC50): 2.25 µM
CC1(C)C2(Cl)C(Cl)C(Cl)C(Cl)(C(Cl)Cl)C1(Cl)C2Cl (centres unmarked) [Strobane] |  | Inactive |  |  |  |  |  |  | 1.59 |  | IC50 (human CYP2D6 [2]; CYP2D6 IC50): 44 µM; IC50 (CYP3A4 [3]; CYP3A4 IC50): 0.82 µM; IC50 (human CYP2C9 [6]; CYP2C9 IC50): 9.89 µM; IC50 (human CYP1A2 [7]; CYP1A2 IC50): 41.2 µM
CCOP(=S)(Oc1cnc(C(C)(C)C)nc1)OC(C)C (centres unmarked) [Tebupirimfos] | 34.3 | Inactive | 1.79 |  |  |  |  |  | 0.62 |  | IC50 (CYP3A4 [3]; CYP3A4 IC50): 1.5 µM; IC50 (human CYP1A2 [7]; CYP1A2 IC50): 24 µM
COC(=O)c1c(C(F)F)nc(C(F)(F)F)c(C2=NCCS2)c1CC(C)C [Thiazopyr] |  |  |  | 54.3 | 1.93 | Inactive | 5.43 | 34.3 |  | 0.4 | 
CC(C)(C)C(=O)C(Oc1ccc(Cl)cc1)n1cncn1 (centres unmarked) [Triadimefon] |  |  |  | 51.6 | 0.45 | Inactive | 1.92 | 11.3 |  | 37 | 
ClC(c1ccccc1)(c1ccccc1)c1ccccc1 [Trityl chloride] |  |  |  | 62.1 |  | Inactive | 0.26 | 1.48 |  | 75.3 | CYP3A4 IC50 (half-maximal inhibitory concentration) (CYP3A4 [8]): 6.9 ± 1.18 (56 ± 3) µM; CYP2D6 AC50 (half-maximal activity concentration) (human CYP2D6 [1]): Inconclusive inhibitor; CYP1A2 AC50 (half-maximal activity concentration) (human CYP1A2 [11]): Inconclusive inhibitor; AC50 (CYP3A4 [3]): 6.9 µM; AC50 (human CYP2C19 [5]; CYP2C19 AC50 (half-maximal activity concentration)): 0.26 µM; AC50 (human CYP2C9 [6]): 1.48 µM
C[C@H]1CCCC(=O)CCC/C=C/c2cc(O)cc(O)c2C(=O)O1 [Zearalenone] | 46.5 |  | 5.74 |  | 0.12 | Inactive | 16.6 |  |  | 25.3 | 
